Experimental data: patent publication US10696693B2, “Fused imidazole derivatives as TGF-beta inhibitors” (Rigel Pharmaceuticals, Inc., priority 2014, dated 2020)
Where two headings read alike, the source gives them in different places.

Experiments:
GDF8 = assay: AlphaScreen SureFire p-SMAD3 (Ser423/425) assay, GDF8-stimulated cells; assay type: cell-based; conditions: Mus musculus
How it was run: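 Lysate (5 μL) went into 384-well shallow plates with 5 μL of Reaction Buffer, Activation Buffer and AlphaScreen Acceptor bead mix. Plates were sealed, kept dark and shaken for 2 hours at room temperature. Donor beads in dilution buffer (2 μL) were added for another 1½ hours, and p-SMAD3 signal was read on a Synergy-4 or Enspire reader.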

TGF-β = assay: AlphaScreen SureFire p-SMAD3 (Ser423/425) assay, TGF-β-stimulated cells; assay type: cell-based; conditions: Mus musculus
How it was run: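 The p-SMAD-3 (Ser423/425) SureFire assay measured phosphorylation of endogenous SMAD-3 in cell lysates. Cells were plated overnight in collagen-coated plates, exposed to three-fold serially diluted compounds for about 10 minutes, then stimulated with TGFβ. Lysates (5 μL) received acceptor bead mix for 2 hours, then donor beads for 1½ hours before AlphaScreen reading.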

[1] = MPC-11, p-SMAD3 (Ser423/425) AlphaScreen in cell lysate, MPC11, GDF8 stimulation, read-out: GDF8: inhibition of GDF8 signaling, GDF pSMAD (MPC11)
[2] = p-SMAD3 (Ser423/425) AlphaScreen in cell lysate, MPC-11, TGF-β stimulation, read-out: TGF-β: inhibition of TGF-β signaling, TGF-β pSMAD (MPC-11)
[3] = MPC-11, read-out: GDF8: inhibition of GDF8 signaling, GDF pSMAD (MPC11), p-SMAD3 (Ser423/425) AlphaScreen in cell lysate, GDF8 stimulation
[4] = MPC-11, read-out: TGF-β: inhibition of TGF-β signaling, TGF-β pSMAD (MPC-11), p-SMAD3 (Ser423/425) AlphaScreen in cell lysate, TGF-β stimulation

## Fc1ccccc1-c1nc2n(c1-c1ccc3ncsc3c1)CCC2 [Compound 199, 6-(2-(2-fluorophenyl)-6,7-dihydro-5H-pyrrolo[1,2-a]imidazol-3-yl)benzo[d]thiazole]
GDF8; [1]
  IC50: 100 to 1000 nM
TGF-β; [2]
  IC50: 100 to 1000 nM

## Fc1ccc(-c2nc3occn3c2-c2ccc3ncccc3c2)cc1F [Compound 145, 5-(quinolin-6-yl)-6-(3,4-difluorophenyl)imidazo[2,1-b]oxazole]
GDF8; [1]
  IC50: 50 to 100 nM
TGF-β; [2]
  IC50: 100 to 1000 nM

## Cc1cc(F)c(-c2nc3n(c2-c2ccc4nccnc4c2)CCC3)cc1F [Compound 286, 6-(2-(2,5-difluoro-4-methylphenyl)-6,7-dihydro-5H-pyrrolo[1,2-a]imidazol-3-yl)quinoxaline]
GDF8; [3]
  IC50: > 1000 nM
TGF-β; [4]
  IC50: > 1000 nM

## OCC1CCC2(CC1)Cc1nc(-c3ccc(F)cc3)c(-c3ccc4ncnn4c3)n1C2 (centres unmarked) [Compound 75, (3′-([1,2,4]triazolo[1,5-a]pyridin-6-yl)-2′-(4-fluorophenyl)-5′H,7′H-spiro[cyclohexane-1,6′-pyrrolo[1,2-a]imidazol]-4-yl)methanol]
GDF8; [3]
  IC50: > 1000 nM
TGF-β; [4]
  IC50: > 1000 nM

## Fc1cc(F)c(F)c(-c2nc3n(c2-c2cc4cnccc4s2)CCC3)c1 [Compound 98, 2-(2-(2,3,5-trifluorophenyl)-6,7-dihydro-5H-pyrrolo[1,2-a]imidazol-3-yl)thieno[3,2-c]pyridine]
GDF8; [1]
  IC50: 100 to 1000 nM
TGF-β; [2]
  IC50: 100 to 1000 nM

## Cc1ccc(-c2nc3n(c2-c2ccc4ncsc4c2)CCC3)c(F)c1F [Compound 249, 6-(2-(2,3-difluoro-4-methylphenyl)-6,7-dihydro-5H-pyrrolo[1,2-a]imidazol-3-yl)benzo[d]thiazole]
GDF8; [1]
  IC50: > 1000 nM
TGF-β; [2]
  IC50: > 1000 nM

## Fc1cc(-c2nc3n(c2-c2ccc4ncsc4c2)CCC3)c(F)cc1Cl [Compound 240, 6-(2-(4-chloro-2,5-difluorophenyl)-6,7-dihydro-5H-pyrrolo[1,2-a]imidazol-3-yl)benzo[d]thiazole]
GDF8; [1]
  IC50: 100 to 1000 nM
TGF-β; [2]
  IC50: > 1000 nM

## Cc1c(F)ccc(-c2nc3n(c2-c2ccc4nccnc4c2)CCC3)c1F [Compound 282, 6-(2-(2,4-difluoro-3-methylphenyl)-6,7-dihydro-5H-pyrrolo[1,2-a]imidazol-3-yl)quinoxaline]
GDF8; [1]
  IC50: 100 to 1000 nM
TGF-β; [2]
  IC50: 100 to 1000 nM

## Fc1ccc(-c2nc3occn3c2-c2ccc3nccnc3c2)cc1F [Compound 136, 6-(3,4-difluorophenyl)-5-(quinoxalin-6-yl)imidazo[2,1-b]oxaole]
GDF8; [1]
  IC50: 100 to 1000 nM
TGF-β; [2]
  IC50: 100 to 1000 nM

## Fc1cccc(-c2nc3n(c2-c2ccc4nccnc4c2)CCC3)c1 [Compound 196, 6-(2-(3-fluorophenyl)-6,7-dihydro-5H-pyrrolo[1,2-a]imidazol-3-yl)quinoxaline]
GDF8; [3]
  IC50: 100 to 1000 nM
TGF-β; [4]
  IC50: > 1000 nM

## Fc1cccc(F)c1-c1nc2n(c1-c1ccc3cn[nH]c3c1)CCC2 [Compound 213, 6-(2-(2,6-difluorophenyl)-6,7-dihydro-5H-pyrrolo[1,2-a]imidazol-3-yl)-1H-indazole]
GDF8; [1]
  IC50: > 1000 nM
TGF-β; [2]
  IC50: > 1000 nM

## Fc1ccccc1-c1nc2n(c1-c1ccc3nccnc3c1)CCC2 [Compound 200, 6-(2-(2-fluorophenyl)-6,7-dihydro-5H-pyrrolo[1,2-a]imidazol-3-yl)quinoxaline]
GDF8; [1]
  IC50: 100 to 1000 nM
TGF-β; [2]
  IC50: > 1000 nM

## Fc1ccc(-c2nc3n(c2-c2ccc4nccnc4c2)CC2(CCCC2)C3)cc1 [Compound 326, 2′-(4-fluorophenyl)-3′-(quinoxalin-6-yl)-5′H,7′H-spiro[cyclopentane-1,6′-pyrrolo[1,2-a]imidazole]]
GDF8; [3]
  IC50: > 1000 nM
TGF-β; [4]
  IC50: > 1000 nM

## Cc1cc(-c2nc3n(c2-c2ccc4nccn4c2)CCC3)c(F)cc1Cl [Compound 29]
GDF8; [1]
  IC50: > 1000 nM
TGF-β; [2]
  IC50: > 1000 nM

## Cc1cccc(-c2nc3n(c2-c2ccc4[nH]cnc4c2)CCC3)c1 [Compound 171, 5-(2-(m-tolyl)-6,7-dihydro-5H-pyrrolo[1,2-a]imidazol-3-yl)-1H-benzo[d]imidazole]
GDF8; [1]
  IC50: 50 to 100 nM
TGF-β; [2]
  IC50: 100 to 1000 nM

## CN(C)CCOc1cnc2ccc(-c3c(-c4cc(F)cc(F)c4F)nc4n3CCC4)cc2n1 [Compound 361, N,N-dimethyl-2-((7-(2-(2,3,5-trifluorophenyl)-6,7-dihydro-5H-pyrrolo[1,2-a]imidazol-3-yl)quinoxalin-2-yl)oxy)ethan-1-amine]
GDF8; [3]
  IC50: > 1000 nM
TGF-β; [4]
  IC50: > 1000 nM

## Cc1cc(F)c(F)cc1-c1nc2n(c1-c1ccc3ncc(C(N)=O)n3c1)CCC2 [Compound 52, 6-(2-(4,5-difluoro-2-methylphenyl)-6,7-dihydro-5H-pyrrolo[1,2-a]imidazol-3-yl)imidazo[1,2-a]pyridine-3-carboxamide]
GDF8; [1]
  IC50: < 50 nM
TGF-β; [2]
  IC50: 50 to 100 nM

## OCC1CCC2(CC1)Cc1nc(-c3ccc(F)cc3)c(-c3ccc4ncsc4c3)n1C2 (centres unmarked) [Compound 335, (3′-(benzo[d]thiazol-6-yl)-2′-(4-fluorophenyl)-5′H,7′H-spiro[cyclohexane-1,6′-pyrrolo[1,2-a]imidazol]-4-yl)methanol]
GDF8; [3]
  IC50: > 1000 nM
TGF-β; [4]
  IC50: > 1000 nM

## Fc1ccc(Cl)cc1-c1nc2n(c1-c1ccc3nccn3c1)CCC2 [Compound 83]
GDF8; [1]
  IC50: < 50 nM
TGF-β; [2]
  IC50: < 50 nM

## Cc1cc(-c2nc3n(c2-c2ccc4nccn4c2)CCC3)c(C)cc1F [Compound 65, 6-(2-(4-fluoro-2,5-dimethylphenyl)-6,7-dihydro-5H-pyrrolo[1,2-a]imidazol-3-yl)imidazo[1,2-a]pyridine]
GDF8; [1]
  IC50: 100 to 1000 nM
TGF-β; [2]
  IC50: > 1000 nM

## c1ccc(-c2nc3n(c2-c2ccc4ncsc4c2)CCC3)nc1 [Compound 367, 6-(2-(pyridin-2-yl)-6,7-dihydro-5H-pyrrolo[1,2-a]imidazol-3-yl)benzo[d]thiazole]
GDF8; [1]
  IC50: < 50 nM
TGF-β; [2]
  IC50: < 50 nM

## Fc1ccc(-c2nc3n(c2-c2ccc4ncccc4c2)CCC3)cc1Cl [Compound 267, 6-(2-(3-chloro-4-fluoropheny)-6,7-dihydro-5H-pyrrolo[1,2-a]imidazol-3-yl)quinoline]
GDF8; [1]
  IC50: 100 to 1000 nM
TGF-β; [2]
  IC50: 100 to 1000 nM

## c1ccc(-c2nc3n(c2-c2ccc4ncccc4c2)CCC3)nc1 [Compound 369, 6-(2-(pyridin-2-yl)-6,7-dihydro-5H-pyrrolo[1,2-a]imidazol-3-yl)quinoline]
GDF8; [1]
  IC50: < 50 nM
TGF-β; [2]
  IC50: 50 to 100 nM

## Cc1c(F)ccc(-c2nc3n(c2-c2ccc4ncccc4c2)CCC3)c1F [Compound 283, 6-(2-(2,4-difluoro-3-methylphenyl)-6,7-dihydro-5H-pyrrolo[1,2-a]imidazol-3-yl)quinoline]
GDF8; [1]
  IC50: 100 to 1000 nM
TGF-β; [2]
  IC50: > 1000 nM

## Fc1cc(-c2nc3n(c2-c2ccc4ncccc4c2)CCC3)c(F)cc1Cl [Compound 242, 6-(2-(4-chloro-2,5-difluorophenyl)-6,7-dihydro-5H-pyrrolo[1,2-a]imidazol-3-yl)quinoline]
GDF8; [1]
  IC50: > 1000 nM
TGF-β; [2]
  IC50: > 1000 nM

## Cc1ccc(-c2nc3n(c2-c2ccc4nccn4c2)CCC3)c(F)c1F [Compound 27]
GDF8; [1]
  IC50: > 1000 nM
TGF-β; [2]
  IC50: > 1000 nM

## Fc1cc(Cl)c(-c2nc3n(c2-c2ccc4ncnn4c2)CCC3)cc1F [Compound 49, 6-(2-(2-chloro-4,5-difluorophenyl)-6,7-dihydro-5H-pyrrolo[1,2-a]imidazol-3-yl)-[1,2,4]triazolo[1,5-a]pyridine]
GDF8; [1]
  IC50: 100 to 1000 nM
TGF-β; [2]
  IC50: 100 to 1000 nM

## Cc1ccc(Cl)cc1-c1nc2n(c1-c1ccc3ncnn3c1)CCC2 [Compound 90, 6-(2-(5-chloro-2-methyl)-6,7-dihydro-5H-pyrrolo[1,2-a]imidazol-3-yl)-[1,2,4]triaolo[1,5-a]pyridine]
GDF8; [1]
  IC50: 100 to 1000 nM
TGF-β; [2]
  IC50: 100 to 1000 nM

## COc1c(C)cc(-c2nc3n(c2-c2ccc4nccnc4c2)CCC3)cc1C [Compound 258, 6-(2-(4-methoxy-3,5-dimethylphenyl)-6,7-dihydro-5H-pyrrolo[1,2-a]imidaol-3-yl)quinoxaline]
GDF8; [1]
  IC50: > 1000 nM
TGF-β; [2]
  IC50: > 1000 nM

## Cc1ccc(F)cc1-c1nc2n(c1-c1ccc3nccn3c1)CCC2 [Compound 59, 6-(2-(5-fluoro-2-methylphenyl)-6,7-dihydro-5H-pyrrolo[1,2-a]imidazol-3-yl)imidazo[1,2-a]pyridine]
GDF8; [1]
  IC50: > 1000 nM
TGF-β; [2]
  IC50: > 1000 nM

## Fc1ccc(-c2nc3n(c2-c2cc4cnccc4s2)CCC3)cc1 [Compound 101, 2-(2-(4-fluorophenyl)-6,7-dihydro-5H-pyrrolo[1,2-a]imidazol-3-yl)thieno[3,2-c]pyridine]
GDF8; [1]
  IC50: 100 to 1000 nM
TGF-β; [2]
  IC50: 100 to 1000 nM

## Fc1cc(F)c(-c2nc3n(c2-c2ccc4ncnn4c2)CCN3)cc1F [Compound 105, 6-(6-(2,4,5-trifluorophenyl)-2,3-dihydro-1H-imidazo[1,2-a]imidazol-5-yl)-[1,2,4]triazolo[1,5-a]pyridine]
GDF8; [1]
  IC50: < 50 nM
TGF-β; [2]
  IC50: < 50 nM

## Fc1cccc(F)c1-c1nc2n(c1-c1ccc3ncccc3c1)CCC2 [Compound 216, 6-(2-(2,6-difluorophenyl)-6,7-dihydro-5H-pyrrolo[1,2-a]imidazol-3-yl)quinoline]
GDF8; [1]
  IC50: > 1000 nM
TGF-β; [2]
  IC50: > 1000 nM

## Fc1cc(F)c(F)c(-c2nc3n(c2-c2ccc4nccnc4c2)CCC3)c1 [Compound 238, 6-(2-(2,3,5-trifluorophenyl)-6,7-dihydro-5H-pyrrolo[1,2-a]imidazol-3-yl)quinoxaline]
GDF8; [1]
  IC50: 100 to 1000 nM
TGF-β; [2]
  IC50: 100 to 1000 nM
